Drawing on paper PMC4777262 (Pharmacology Research & Perspectives, 2016), this text covers IC50 for two compounds.

One test addresses IMPDH1 (Homo sapiens, UniProt P20839). Briefly: spectrophotometric NADH production at […] nm. The format is biochemical.
The target in another test is IMPDH2 (Homo sapiens, UniProt P12268). Nature of the test: spectrophotometric NADH production at […] nm. In kind it is biochemical.
Chain of IMPDH2 (P12268 2-514): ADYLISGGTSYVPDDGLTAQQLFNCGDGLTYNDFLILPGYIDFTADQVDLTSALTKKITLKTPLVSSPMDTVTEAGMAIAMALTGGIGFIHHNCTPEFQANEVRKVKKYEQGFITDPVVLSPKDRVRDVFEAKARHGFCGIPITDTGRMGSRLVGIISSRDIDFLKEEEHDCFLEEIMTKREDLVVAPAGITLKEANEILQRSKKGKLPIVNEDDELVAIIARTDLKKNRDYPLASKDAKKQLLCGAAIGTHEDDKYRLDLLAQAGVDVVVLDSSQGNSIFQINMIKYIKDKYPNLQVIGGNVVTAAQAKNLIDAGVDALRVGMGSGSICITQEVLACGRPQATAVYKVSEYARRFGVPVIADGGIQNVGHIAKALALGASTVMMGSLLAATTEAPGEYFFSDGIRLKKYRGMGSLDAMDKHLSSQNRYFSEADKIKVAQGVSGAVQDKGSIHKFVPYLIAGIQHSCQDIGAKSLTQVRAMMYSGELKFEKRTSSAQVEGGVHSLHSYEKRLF

Chain of IMPDH1 (P20839 2-514): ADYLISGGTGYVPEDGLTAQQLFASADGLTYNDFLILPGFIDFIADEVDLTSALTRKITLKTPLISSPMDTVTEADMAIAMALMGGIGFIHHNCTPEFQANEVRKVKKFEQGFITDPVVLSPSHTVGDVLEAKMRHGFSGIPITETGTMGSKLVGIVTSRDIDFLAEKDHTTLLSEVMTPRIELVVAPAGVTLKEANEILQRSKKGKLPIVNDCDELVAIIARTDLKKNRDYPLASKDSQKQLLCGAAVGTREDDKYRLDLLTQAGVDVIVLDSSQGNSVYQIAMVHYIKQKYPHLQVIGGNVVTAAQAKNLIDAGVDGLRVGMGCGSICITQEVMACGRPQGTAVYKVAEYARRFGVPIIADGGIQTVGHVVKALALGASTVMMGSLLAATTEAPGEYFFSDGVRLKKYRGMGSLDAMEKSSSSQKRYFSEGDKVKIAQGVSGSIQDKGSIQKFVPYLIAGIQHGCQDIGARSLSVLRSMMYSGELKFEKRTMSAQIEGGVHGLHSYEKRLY

Regarding `NC(=O)c1ncn([C@@H]2O[C@H](COP(=O)(O)O)[C@@H](O)[C@H]2O)c1O` [FF‐10501RMP], the IC50 on IMPDH1 turned out to be 29 ± 10.3 nM; on IMPDH2, 31.8 ± 5.6 nM.

On to `COc1c(C)c2c(c(O)c1C/C=C(\C)CCC(=O)O)C(=O)OC2` [Mycophenolic acid, reference compound], for which the IC50 on IMPDH1 was 26.4 ± 1.5 nM.
